Results on six compounds are retold here after patent US20040192672A1, “Iodobenzopyran-4-one derivatives having fungicidal activity” (priority 2001, published 2004).

The structures appear in SMILES notation.

What all share (format): in vivo
Assay [1] has as its system wheat powdery mildew (Blumeria graminis). Kind of assay: Field test of intensity of attack on winter wheat. The following applies: 125 g of active ingredient/ha per application (A and B), 52 days after Application B, winter wheat field plots. Here is the method: (§1) The compounds were tested for their activity against wheat powdery mildew (Blumeda graminis).
(§2) Winter wheat (Appolo variety) was planted in France (department of Marne) in 1 m^2 plots, at the rate of 200 kg/ha (soil: coloured rendzina) at a depth of 3 cm. The compounds of the invention were applied to the wheat plants in two portions: Application A at the 1 cm ear stage and then Application B at the second visible node stage. Each of these applications was carried out by spraying an aqueous solution of the compounds at a dose of 125 g of active ingredient/ha.
(§3) During Application A, the intensity of attack by the fungus Blumeria graminis is estimated at 3% of the total foliar volume.
The tests of intensity of attack are carried out 52 days after Application B by evaluating the percentage of affected surface area of the second leaves (counted from the ear).

Assay [2] has the same test system. The experiment in a line: Field test of frequency of attack on winter wheat. The following applies: 125 g of active ingredient/ha per application (A and B), same conditions as Table 1. On the procedure: as §1, §2, §3
Under the same conditions, a test of frequency of attack was performed by evaluating the percentage of second leaf (from the ear) attacked by the fungus Blumeria graminis.

Assay [3] has as its system powdery mildew (Blumeria graminis f. sp. tritici) strains resistant to strobilurin derivatives. Kind of assay: Greenhouse test on pathogenic strains resistant to strobilurin derivatives. The following applies: wheat, 13 days of incubation. Here is the method:
This example gives an illustration of the biological efficacy of the compounds of formula (I) on pathogenic strains resistant to strobilurin derivatives.
The experiment was performed in a greenhouse.
Resistant strains were isolated and samples taken in 2001 in the north of Germany in the Bremen region in a place treated with pyraclostrobin and with picoxystrobin. These strains are characterized by their resistance to these strobilurin-type compounds. They were then kept in a controlled-environment chamber on wheat plants (Kanzler variety) treated with trifloxystrobin.
The tested compounds were sprayed on the wheat plants using solutions for application diluted in water to a volume equivalent to 250 l/ha. 24 h later, the plants were inoculated with powdery mildew (Blumeria graminis f. sp. tritici).
The extent of the disease was evaluated on each plant after 13 days of incubation.

Assay [4] has as its system wheat brown rust (Puccinia recondita). Kind of assay: Greenhouse preventive synergy test, wheat brown rust. Here is the method:
(§4) This example gives an illustration of the synergistic effect obtained using the compounds according to the invention in the form of a mixture with compounds of the strobilurin type, in particular trifloxystrobin, triazole, in particular fluquinconazole. The compounds according to the invention were tested in a greenhouse under preventive conditions.
(§5) The combinations of active ingredients in Table 4 were evaluated.
(§6) The compounds and mixtures tested were sprayed on wheat plants:
(§7) volume for application equivalent to 250 l/ha.
(§8) On the day following the application, the wheat plants were inoculated with powdery mildew (Blumeria graminis f. sp. tritici), brown rust (Puccinia recondita), glume blotches (Septoria tritici and Septoria nodorum) and the barley plants with powdery mildew (Blumeria graminis f. sp. hordei). Once the diseases had developed, the evaluation was made by determining the extent of disease per pot.
(§9) The level of synergy was calculated using the Colby formula in order to calculate the theoretical efficacy and to compare it to the observed efficacy:
(§10) Theoretical efficacy of A+B=efficacy of A (%)+efficacy of B (%)−[efficacy of A (%)×efficacy of B (%)/100]

Assay [5] deals with wheat glume blotch (Septoria tritici). Kind of assay: Greenhouse preventive synergy test, wheat glume blotch (Septoria tritici). Here is the method: as §4, §5, §6, §7, §8, §9, §10
In assay [6] the test system is barley powdery mildew (Blumeria graminis f. sp. hordei). The experiment in a line: Greenhouse preventive synergy test, barley powdery mildew. On the procedure:
as §4, §5, §6, §7, §8, §9, §10

Assay [7] concerns wheat glume blotch (Septoria nodorum). Kind of assay: Greenhouse preventive synergy test, wheat glume blotch (Septoria nodorum). Here is the method: as §4, §5, §6, §7, §8, §9, §10
In assay [8] the test system is wheat powdery mildew (Blumeria graminis f. sp. tritici). The experiment in a line: Greenhouse preventive synergy test, wheat powdery mildew. Here is the method:
as §4, §5, §6, §7, §8, §9, §10

In the case of `CCCOc1oc2ccc(I)cc2c(=O)c1CCC` [Compound 2, 6-iodo-2-propoxy-3-propylbenzopyran-4-one], the “% affected surface area per (second) leaf” value in assay [1] stood at 2.53%.
In the case of `CCCc1c(OCC)oc2ccc(I)cc2c1=O` [Compound 1, 2-ethoxy-6-iodo-3-propylbenzopyran-4-one], the “% of second leaf attacked” value in assay [2] was determined as 28.0%. For the same compound, the “Percentage of leaves affected by powdery mildew” value in assay [3] (31 g/ha) and in assay [3] (62 g/ha) was 0% in each case. Besides, the Observed efficacy in assay [4] (Table 7, 50 g/ha) amounted to 0%; in assay [5] (Table 8, 50 g/ha) it was 0%; in assay [6] (Table 6, 12 g/ha) it was 50%; in assay [6] (Table 11, 16 g/ha), 50%; in assay [6] (Table 11, 25 g/ha) it was 75%; in assay [7] (Table 9, 50 g/ha), 0%. Further, the Observed efficacy in assay [8] (Table 5, 6 g/ha) is reported as 25%; in assay [8] (Table 10, 6 g/ha) it was 25%; in assay [8] (Table 10, 16 g/ha), 50%; in assay [8] (Table 10, 25 g/ha), 75%. Moreover, the “% affected surface area per (second) leaf” value in assay [1] is on record as 0.56%.
On to `CON=C(C(=O)OC)c1ccccc1CON=C(C)c1cccc(C(F)(F)F)c1` [Trifloxystrobin], for which the “Percentage of leaves affected by powdery mildew” value in assay [3] (31 g/ha), in assay [3] (62 g/ha), in assay [3] (125 g/ha) and in assay [3] (250 g/ha) was 100% in each case. Moreover, the Observed efficacy is on record as 0% in assay [6] (Table 11, 16 g/ha); 0% in assay [6] (Table 11, 62 g/ha); 30% in assay [8] (Table 10, 16 g/ha); 40% in assay [8] (Table 10, 31 g/ha); 50% in assay [8] (Table 10, 62 g/ha).
With `CCCCOc1oc2ccc(I)cc2c(=O)c1CCC` [Compound 3, 2-butoxy-6-iodo-3-propylbenzopyran-4-one], in assay [2], the “% of second leaf attacked” value is 54.0%. Also, the “% affected surface area per (second) leaf” value in assay [1] stood at 2.51%.
The matching figures for `Fc1ccc(Oc2ccnc3cc(Cl)cc(Cl)c23)cc1` [Compound B, quinoxyfen]: 73.3% and 4.91%.
`O=c1c2cc(F)ccc2nc(-n2cncn2)n1-c1ccc(Cl)cc1Cl` [fluquinconazole]: the Observed efficacy in assay [4] (Table 7, 100 g/ha) came out at 60%; in assay [5] (Table 8, 100 g/ha), 60%; in assay [6] (Table 6, 12 g/ha), 25%; in assay [6] (Table 6, 25 g/ha) it was 25%; in assay [6] (Table 6, 62 g/ha) it was 75%; in assay [7] (Table 9, 100 g/ha), 75%. For the same compound, the Observed efficacy in assay [8] (Table 5, 6 g/ha) is given as 0%; in assay [8] (Table 5, 12 g/ha), 0%; in assay [8] (Table 5, 31 g/ha) it was 0%.
